Reference: the supplement of paper PMC11208160

Assay: recombinant UMI read abundance after kanamycin selection (control-corrected) (log10(CPM+1)); higher = more efficient recombination; extreme values may be limits of the assay; sequences stand for … in AGTGCAGAGAAAATCGGCCAGTTTTCTCTGCCTGCAGTCCGCATGCCGTGGGACCCCTTGGGTTCTAACCTGTTGCCTAGATTTATGCAGCGGACTGCCTTTCTCCCAAAGTGATAAACCGG…AGGTTGGTTTCACT; site = the 11-nt donor
Outline: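 Sequenced counts of recombinant UMIs were turned into CPM, averaged across replicates and scaled with control-derived factors. The reported figure is log10(CPM+1). Those UMIs, each 12 nt long, tagged donor and donor-binding-loop pairs on a plasmid with a promoterless kanamycin gene, screened as a pool in Escherichia coli with IPTG (0.07 mM) plus kanamycin or without selection.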
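Further: IS621 bridge recombinase in Escherichia coli cells against a fixed T5 target plasmid.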

Sequence	recombinant UMI read abundance (log10)
TAGCGAGCATGGACCGGTTTTCCCGGTAATCCGTATTTGAA (site TAGCTAGCTTT)	0.00707
TAGCGAGCATGGACCGGTTTTCCCGGTAATCCGTATTTGTA (site TAGCGAGCTTA)	1.82
TAGCGGCCATGGACCGGTTTTCCCGGTAATCCGTATTTGAA (site TAGCGGCCTTT)	0.205
TAGCGTACATGGACCGGTTTTCCCGGTAATCCGTATTTGTA (site TAGCGTACTTA)	1.2
TAGCTAACATGGACCGGTTTTCCCGGTAATCCGTATTTGAA (site TAGCTAACTTT)	1.09
TAGCTAACATGGACCGGTTTTCCCGGTAATCCGTATTTGAA (site TAGCTACCTTT)	0.00585
TAGCTAACATGGACCGGTTTTCCCGGTAATCCGTATTTGAA (site TAGCTAGCTTT)	0.00737
TAGCTAACATGGACCGGTTTTCCCGGTAATCCGTATTTGAA (site TAGCTATCTTT)	0.429
TAGCTACCATGGACCGGTTTTCCCGGTAATCCGTATTTGAA (site TAGCTAACTTT)	0.00682
TAGCTACCATGGACCGGTTTTCCCGGTAATCCGTATTTGAA (site TAGCTACCTTT)	0.00616
TAGCTACCATGGACCGGTTTTCCCGGTAATCCGTATTTGAA (site TAGCTAGCTTT)	0.00385
TAGCTACCATGGACCGGTTTTCCCGGTAATCCGTATTTGAA (site TAGCTATCTTT)	0.784
TAGCTATCATGGACCGGTTTTCCCGGTAATCCGTATTTGAA (site TAGCTAACTTT)	0.00325
TAGCTATCATGGACCGGTTTTCCCGGTAATCCGTATTTGAA (site TAGCTACCTTT)	0.0124
TAGCTATCATGGACCGGTTTTCCCGGTAATCCGTATTTGAA (site TAGCTAGCTTT)	0.00959
TAGCTATCATGGACCGGTTTTCCCGGTAATCCGTATTTGAA (site TAGCTATCTTT)	2.02
TAGCTCACATGGACCGGTTTTCCCGGTAATCCGTATTTGAT (site AAGCTCACTAT)	0.00391
TAGCTCACATGGACCGGTTTTCCCGGTAATCCGTATTTGAT (site CAGCTCACTAT)	0.61
TAGCTCACATGGACCGGTTTTCCCGGTAATCCGTATTTGAT (site GAGCTCACTAT)	0.0104
TAGCTCACATGGACCGGTTTTCCCGGTAATCCGTATTTGAT (site TAGCTCACTAT)	1.47
TAGGAATCATGGACCGGTTTTCCCGGTAATCCGTATTTGGG (site TAGGAATCTCA)	0.407
TAGGAATCATGGACCGGTTTTCCCGGTAATCCGTATTTGGG (site TAGGAATCTCC)	1.79
TAGGAATCATGGACCGGTTTTCCCGGTAATCCGTATTTGGG (site TAGGAATCTCG)	0
TAGGAATCATGGACCGGTTTTCCCGGTAATCCGTATTTGGG (site TAGGAATCTCT)	0.56
TAGGATACATGGACCGGTTTTCCCGGTAATCCGTATTTGCA (site TAGAATACTTG)	1.71

Sequence	recombinant UMI read abundance (log10)
TAGGATACATGGACCGGTTTTCCCGGTAATCCGTATTTGCA (site TAGCATACTTG)	0.852
TAGGATACATGGACCGGTTTTCCCGGTAATCCGTATTTGCA (site TAGGATACTTG)	3.06
TAGGATACATGGACCGGTTTTCCCGGTAATCCGTATTTGCA (site TAGTATACTTG)	1.44
TAGGATTCATGGACCGGTTTTCCCGGTAATCCGTATTTGCG (site TAGGAATCTCG)	1.73
TAGGATTCATGGACCGGTTTTCCCGGTAATCCGTATTTGCG (site TAGGACTCTCG)	1.68
TAGGATTCATGGACCGGTTTTCCCGGTAATCCGTATTTGCG (site TAGGAGTCTCG)	0.435
TAGGATTCATGGACCGGTTTTCCCGGTAATCCGTATTTGCG (site TAGGATTCTCG)	2.94
TAGGCAACATGGACCGGTTTTCCCGGTAATCCGTATTTGCA (site TAGGCAACTTG)	0.0204
TAGGCATCATGGACCGGTTTTCCCGGTAATCCGTATTTGCG (site TAGGAATCTCG)	0
TAGGCATCATGGACCGGTTTTCCCGGTAATCCGTATTTGCG (site TAGGCATCTCG)	1.31
TAGGCATCATGGACCGGTTTTCCCGGTAATCCGTATTTGCG (site TAGGGATCTCG)	0.00568
TAGGCATCATGGACCGGTTTTCCCGGTAATCCGTATTTGCG (site TAGGTATCTCG)	0.449
TAGGGGACATGGACCGGTTTTCCCGGTAATCCGTATTTGAA (site TAGGGGACTTT)	1.24
TAGGTAGCATGGACCGGTTTTCCCGGTAATCCGTATTTGAA (site TAGATAGCTTT)	0.894
TAGGTAGCATGGACCGGTTTTCCCGGTAATCCGTATTTGAA (site TAGCTAGCTTT)	0.00863
TAGGTAGCATGGACCGGTTTTCCCGGTAATCCGTATTTGAA (site TAGGTAGCTTT)	1.67
TAGGTAGCATGGACCGGTTTTCCCGGTAATCCGTATTTGAA (site TAGTTAGCTTT)	0.0108
TAGGTATCATGGACCGGTTTTCCCGGTAATCCGTATTTGCG (site TAGGAATCTCG)	1.02
TAGGTATCATGGACCGGTTTTCCCGGTAATCCGTATTTGCG (site TAGGCATCTCG)	1.3
TAGGTATCATGGACCGGTTTTCCCGGTAATCCGTATTTGCG (site TAGGGATCTCG)	1.7
TAGGTATCATGGACCGGTTTTCCCGGTAATCCGTATTTGCG (site TAGGTATCTCG)	2.92
TAGGTTGCATGGACCGGTTTTCCCGGTAATCCGTATTTGGC (site TAGGTTGCTGC)	2.62
TAGTACTCATGGACCGGTTTTCCCGGTAATCCGTATTTGCT (site TAGTACTCTAG)	2.94
TAGTAGTCATGGACCGGTTTTCCCGGTAATCCGTATTTGGG (site TAGTAGTCTCC)	0.369
TAGTCGACATGGACCGGTTTTCCCGGTAATCCGTATTTGGG (site AAGTCGACTCC)	0.0151

Sequence	recombinant UMI read abundance (log10)
TAGTCGACATGGACCGGTTTTCCCGGTAATCCGTATTTGGG (site CAGTCGACTCC)	0.0191
TAGTCGACATGGACCGGTTTTCCCGGTAATCCGTATTTGGG (site GAGTCGACTCC)	0.0292
TAGTCGACATGGACCGGTTTTCCCGGTAATCCGTATTTGGG (site TAGTCGACTCC)	0.0301
TAGTCGGCATGGACCGGTTTTCCCGGTAATCCGTATTTGAT (site TAGTCGGCTAT)	0.387
TAGTTAGCATGGACCGGTTTTCCCGGTAATCCGTATTTGAA (site TAGATAGCTTT)	0.0157
TAGTTAGCATGGACCGGTTTTCCCGGTAATCCGTATTTGAA (site TAGCTAGCTTT)	0.407
TAGTTAGCATGGACCGGTTTTCCCGGTAATCCGTATTTGAA (site TAGGTAGCTTT)	0.00722
TAGTTAGCATGGACCGGTTTTCCCGGTAATCCGTATTTGAA (site TAGTTAGCTTT)	1.33
TATAACTCATGGACCGGTTTTCCCGGTAATCCGTATTTGGC (site TATAACTCTGC)	1.35
TATACACCATGGACCGGTTTTCCCGGTAATCCGTATTTGAC (site TATACACCTGT)	0
TATACACCATGGACCGGTTTTCCCGGTAATCCGTATTTGAC (site TCTACACCTGT)	0.0077
TATACACCATGGACCGGTTTTCCCGGTAATCCGTATTTGAC (site TGTACACCTGT)	0
TATACACCATGGACCGGTTTTCCCGGTAATCCGTATTTGAC (site TTTACACCTGT)	0
TATATCTCATGGACCGGTTTTCCCGGTAATCCGTATTTGAA (site TATATCTCTTT)	0.835
TATATCTCATGGACCGGTTTTCCCGGTAATCCGTATTTGTA (site TATATCTCTTA)	1.93
TATCCTCCATGGACCGGTTTTCCCGGTAATCCGTATTTGTT (site TATCCTCCTAA)	0.0195
TATCCTTCATGGACCGGTTTTCCCGGTAATCCGTATTTGGT (site TAACCTTCTAC)	0.00593
TATCCTTCATGGACCGGTTTTCCCGGTAATCCGTATTTGGT (site TACCCTTCTAC)	0.0066
TATCCTTCATGGACCGGTTTTCCCGGTAATCCGTATTTGGT (site TAGCCTTCTAC)	0.0208
TATCCTTCATGGACCGGTTTTCCCGGTAATCCGTATTTGGT (site TATCCTTCTAC)	0.31
TATCGATCATGGACCGGTTTTCCCGGTAATCCGTATTTGAC (site TATCGATCTGT)	1.86
TATCTAGCATGGACCGGTTTTCCCGGTAATCCGTATTTGAA (site TAACTAGCTTT)	0.0105
TATCTAGCATGGACCGGTTTTCCCGGTAATCCGTATTTGAA (site TACCTAGCTTT)	0.131
TATCTAGCATGGACCGGTTTTCCCGGTAATCCGTATTTGAA (site TAGCTAGCTTT)	0.00935
TATCTAGCATGGACCGGTTTTCCCGGTAATCCGTATTTGAA (site TATCTAGCTTT)	0.502
